In ChEMBL document CHEMBL2203186, “T-type Ca2+ channel blocker, KYS05047 induces G1 phase cell cycle arrest by decreasing intracellular Ca2+ levels in human lung adenocarcinoma A549 cells” (Bioorg Med Chem Lett, 2012):
The source made the active and inactive calls. The rule behind the calls is not given here.

Key:
A549 [1] = experiment: Cell cycle arrest at G1 phase in human A549 cells at 7 uM after 24 hrs using propidium iodide by flow cytometry in presence of KCl; type: functional, cell-based
A549 [2] = experiment: Inhibition of T-type Ca2+ channel in human A549 cells assessed as reduction in intracellular ca2+ level at 3 to 8 uM after 108 mins by Fluo-4 staining method in presence of KCl; type: cell-based
A549 [3] = experiment: Inhibition of T-type Ca2+ channel in human A549 cells assessed as reduction in intracellular ca2+ level at 3 to 8 uM after 108 mins by Fluo-4 staining method; type: cell-based
A549 [4] = experiment: Antitumor activity against human A549 cells xenografted in BALB/c nu/nu mouse assessed as tumor growth inhibition at 2 to 10 mg/kg, po administered 5 times a week for 21 days; type: functional, organism-based
A549 [5] = experiment: Upregulation of p27Kip1 protein level in human A549 cells assessed as inhibition of mTOR activity at 7 uM by Western blot method; type: functional, cell-based; conditions: TDE = time-dependent effect
A549 [6] = experiment: Upregulation of p27Kip1 protein level in human A549 cells assessed as inhibition of AKT activity at 7 uM by Western blot method; type: functional, cell-based; conditions: TDE = time-dependent effect
A549 [7] = experiment: Upregulation of p27Kip1 protein level in human A549 cells assessed as inhibition of CDK4-mediated Rb phosphorylation at 7 uM by Western blot method; type: functional, cell-based; conditions: TDE = time-dependent effect
A549 [8] = experiment: Upregulation of p27Kip1 protein level in human A549 cells assessed as inhibition of CDK2 activity at 7 uM by Western blot method; type: functional, cell-based; conditions: TDE = time-dependent effect
A549 [9] = experiment: Effect on p21Waf1 protein level in human A549 cells at 7 uM after 3 to 24 hrs by Western blot method; type: functional, cell-based
A549 [10] = experiment: Upregulation of p27Kip1 protein level in human A549 cells at 7 uM by Western blot method; type: functional, cell-based; conditions: TDE = time-dependent effect
A549 [11] = experiment: Effect on Cyclin E protein level in human A549 cells at 7 uM after 3 to 24 hrs by Western blot method; type: functional, cell-based
A549 [12] = experiment: Effect on Cyclin D1 protein level in human A549 cells at 7 uM after 3 to 24 hrs by Western blot method; type: functional, cell-based
A549 [13] = experiment: Downregulation of Cdk4 protein level in human A549 cells at 7 uM after 3 to 24 hrs by Western blot method; type: functional, cell-based
A549 [14] = experiment: Cell cycle arrest at G1 phase in human A549 cells at 7 uM after 24 hrs using propidium iodide by flow cytometry; type: functional, cell-based
A549 [15] = experiment: Cell cycle arrest in human A549 cells assessed as reduction in cells at S phase at 2 to 7 uM after 24 hrs using propidium iodide by flow cytometry; type: functional, cell-based
A549 [16] = experiment: Downregulation of Cdk2 protein level in human A549 cells at 7 uM after 3 to 24 hrs by Western blot method; type: functional, cell-based
A549 [17] = experiment: Cytocidal activity in human A549 cells at 6 to 8 uM by trypan Blue assay; type: functional, cell-based
A549 [18] = experiment: Growth inhibition of human A549 cells at 6 to 48 hrs by trypan Blue assay; type: functional, cell-based
A549 [19] = experiment: Growth inhibition of human A549 cells at 4 to 12 uM by trypan Blue assay; type: functional, cell-based; conditions: TDE = time-dependent effect
Mus musculus [20] = experiment: Toxicity in BALB/c nu/nu mouse assessed as mortality at 20 mg/kg, ip administered twice a week for 21 days; type: organism-based; parameters: dose 20 mg/kg, route intraperitoneal; conditions: in vivo, 504 h
Mus musculus [21] = experiment: Toxicity in BALB/c nu/nu mouse assessed as change in body weight at 20 mg/kg, ip administered twice a week for 21 days; type: organism-based; parameters: dose 20 mg/kg, route intraperitoneal; conditions: in vivo, 504 h
A549 [22] = experiment: Antitumor activity against human A549 cells xenografted in BALB/c nu/nu mouse assessed as tumor growth inhibition at 20 mg/kg, ip administered twice a week for 21 days; type: functional, organism-based; parameters: dose 20 mg/kg

Structure (SMILES): CC(C)(C)OC(=O)NCCCCCN1C(Nc2ccc(-c3ccccc3)cc2)=Nc2ccccc2C1CC(=O)NCc1ccccc1 (configuration not stated)
- Activity (A549 [1]): inactive
- inhibition (A549 [2]): inactive
- inhibition (A549 [3]): Active
- TGI (A549 [4]): Active
- inhibition (A549 [5]): tde
- inhibition (A549 [6]): tde
- inhibition (A549 [7]): tde
- inhibition (A549 [8]): tde
- Activity (A549 [9]): inactive
- Activity (A549 [10]): tde
- Activity (A549 [11]): inactive
- Activity (A549 [12]): inactive
- Activity (A549 [13]): Active
- Activity (A549 [14]): Active
- Activity (A549 [15]): Active
- Activity (A549 [16]): Active
- Activity (A549 [17]): inactive
- growth inhibition (GI) (A549 [18]): Dose-dependent effect
- growth inhibition (GI) (A549 [19]): tde

Structure (SMILES): CC(=O)O[C@H]1C(=O)[C@@]2(C)[C@H]([C@H](OC(=O)c3ccccc3)[C@]3(O)C[C@H](OC(=O)[C@H](O)[C@@H](NC(=O)c4ccccc4)c4ccccc4)C(C)=C1C3(C)C)[C@]1(OC(C)=O)CO[C@@H]1C[C@@H]2O [PACLITAXEL]
- Activity (Mus musculus [20]): Non-toxic
- Activity (Mus musculus [21]): Non-toxic
- TGI (A549 [22]): Active
